Laboratory results from US4446315A, “Adenosine 5'-triphosphate-4-carboxamide-ribofuranosylthiazole” (The United States of America as represented by the …, priority 1982, dated 1984).
“Also recorded” adds a separate entry of the source. Like-named read-outs stand apart in the source and are kept apart here.

How the values were obtained:
[1] = molecular target: bacterial IMP dehydrogenase; test: Inhibition of bacterial IMP dehydrogenase; format: biochemical; settings: chemically synthesized TAD; read-out: Ki against bacterial IMP dehydrogenase
[2] = tested on: P388 leukemic cells; test: Cytotoxicity against P388 leukemic cells in culture; format: cell-based; settings: Mus musculus, read-out: Cytotoxicity Against P388 Leukemic Cells in Culture IC50 (median inhibitory concentration)
[3] = Antitumor activity of the metabolite administered as such; settings: compared with progenitor TR; initial experiments

Work on `NC(=O)c1csc([C@@H]2O[C@H](COP(=O)(O)OP(=O)(O)OC[C@H]3O[C@@H](n4cnc5c(N)ncnc54)[C@H](O)[C@@H]3O)[C@@H](O)[C@H]2O)n1` [TAD, adenosine 5'-(trihydrogen diphosphate) 5'→5'-ester with 4-carboxamide-2-β-D-ribofuranosylthiazole] yielded a Ki [1] of 3.4 µM, an IC50 ([2]; P388, chemically synthesized TAD) of 3.5 µM and an IC50 ([2]; P388, enzymatically (biologically) synthesized TAD) of 2.5 µM. For the same compound, the Antitumor activity [3] was “active when administered as such; also recorded: superior to that of its progenitor”.
